Assay results taken from ChEMBL document CHEMBL1201862, “PubChem BioAssay data set” (2004).
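Method: 48-hour compound exposure of cells in 96-well plates, five concentrations, linear interpolation of endpoints. GI50 is the concentration that inhibits growth by half.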 Active and inactive are the calls of the source. No stated cut-off is given here; in the data, active = GI50 up to about 1.1 µM and inactive = higher.

What was measured:
Experiment in all cases: growth of human tumour cells (NCI), 48 h
786-0 = system: 786-0
A498 = system: A498
ACHN = system: ACHN
BT-549 = system: BT-549
CAKI-1 = system: CAKI-1
CCRF-CEM = system: CCRF-CEM
COLO 205 = system: COLO 205
DU-145 = system: DU-145
EKVX = system: EKVX
HCC 2998 = system: HCC 2998
HCT-116 = system: HCT-116
HCT-15 = system: HCT-15
HL-60 = system: HL-60
HOP-62 = system: HOP-62
HOP-92 = system: HOP-92
HT-29 = system: HT-29
Hs-578T = system: Hs-578T
IGROV-1 = system: IGROV-1
K562 = system: K562
KM12 = system: KM12
LOX IMVI = system: LOX IMVI
MCF7 = system: MCF7
MDA-MB-231 = system: MDA-MB-231
MDA-MB-435 = system: MDA-MB-435
MDA-N = system: MDA-N
MOLT-4 = system: MOLT-4
Malme-3M = system: Malme-3M
NCI-H226 = system: NCI-H226
NCI-H23 = system: NCI-H23
NCI-H460 = system: NCI-H460
NCI-H522 = system: NCI-H522
NCI/ADR-RES = system: NCI/ADR-RES
OVCAR-3 = system: OVCAR-3
OVCAR-4 = system: OVCAR-4
OVCAR-5 = system: OVCAR-5
OVCAR-8 = system: OVCAR-8
PC-3 = system: PC-3
RPMI-8226 = system: RPMI-8226
RXF 393 = system: RXF 393
SF-268 = system: SF-268
SF-295 = system: SF-295
SF-539 = system: SF-539
SK-MEL-28 = system: SK-MEL-28
SK-MEL-2 = system: SK-MEL-2
SK-MEL-5 = system: SK-MEL-5
SK-OV-3 = system: SK-OV-3
SN12C = system: SN12C
SNB-75 = system: SNB-75
SR = system: SR
SW-620 = system: SW-620
T47D = system: T47D
TK-10 = system: TK-10
UACC-257 = system: UACC-257
UACC-62 = system: UACC-62
A549 = system: A549
M14 = system: M14
SNB-19 = system: SNB-19
U-251 = system: U-251
UO-31 = system: UO-31

Measured: GI50

CCOc1cc(NC(C)=O)ccc1C(=O)NN1C(=O)C(Oc2ccccc2)C1c1ccccc1 (configuration not stated)
inactive: 786-0 > 100 µM | A498 45.4 µM | ACHN 26.5 µM | BT-549 > 100 µM | CAKI-1 52.4 µM | CCRF-CEM 28.6 µM | COLO 205 71.9 µM | DU-145 > 100 µM | EKVX > 100 µM | HCC 2998 > 100 µM | HCT-116 94.4 µM | HL-60 25.9 µM | HOP-62 > 100 µM | HOP-92 > 100 µM | HT-29 > 100 µM | Hs-578T > 100 µM | IGROV-1 > 100 µM | K562 49.5 µM | KM12 > 100 µM | LOX IMVI 85.3 µM | MCF7 15.1 µM | MDA-MB-231 > 100 µM | MDA-MB-435 > 100 µM | MDA-N > 100 µM | MOLT-4 1.77 µM | Malme-3M 52.5 µM | NCI-H226 57.8 µM | NCI-H23 > 100 µM | NCI-H460 15.3 µM | NCI-H522 > 100 µM | NCI/ADR-RES > 100 µM | OVCAR-3 > 100 µM | OVCAR-4 > 100 µM | OVCAR-5 > 100 µM | OVCAR-8 > 100 µM | PC-3 > 100 µM | RPMI-8226 35.9 µM | RXF 393 70.5 µM | SF-268 > 100 µM | SF-295 57.8 µM | SF-539 78 µM | SK-MEL-28 > 100 µM | SK-MEL-2 > 100 µM | SK-MEL-5 42.8 µM | SK-OV-3 > 100 µM | SN12C > 100 µM | SNB-75 92.3 µM | SR 4.15 µM | SW-620 > 100 µM | T47D 44.4 µM | TK-10 > 100 µM | UACC-257 > 100 µM | UACC-62 45 µM
> 100 µM: HCT-15

CC(C)NC(=O)OCc1c(COC(=O)NC(C)C)c(-c2cc[n+](COC(=O)C(C)(C)C)cc2)n2c1CCC2
inactive: 786-0 > 100 µM | A498 > 100 µM | A549 > 100 µM | ACHN 61.9 µM | BT-549 > 100 µM | CAKI-1 60 µM | CCRF-CEM > 100 µM | COLO 205 > 100 µM | DU-145 > 100 µM | EKVX > 100 µM | HCC 2998 > 100 µM | HCT-116 > 100 µM | HL-60 > 100 µM | HOP-62 > 100 µM | HOP-92 > 100 µM | HT-29 > 100 µM | Hs-578T > 100 µM | IGROV-1 > 100 µM | K562 > 100 µM | KM12 > 100 µM | LOX IMVI > 100 µM | M14 > 100 µM | MCF7 > 100 µM | MDA-MB-231 > 100 µM | MDA-MB-435 > 100 µM | MDA-N > 100 µM | MOLT-4 > 100 µM | Malme-3M > 100 µM | NCI-H226 > 100 µM | NCI-H23 > 100 µM | NCI-H460 > 100 µM | NCI-H522 > 100 µM | NCI/ADR-RES > 100 µM | OVCAR-3 > 100 µM | OVCAR-4 > 100 µM | OVCAR-5 > 100 µM | OVCAR-8 > 100 µM | PC-3 > 100 µM | RPMI-8226 > 100 µM | RXF 393 > 100 µM | SF-268 > 100 µM | SF-295 > 100 µM | SF-539 > 100 µM | SK-MEL-28 > 100 µM | SK-MEL-2 > 100 µM | SK-MEL-5 > 100 µM | SK-OV-3 > 100 µM | SN12C > 100 µM | SNB-19 > 100 µM | SNB-75 > 100 µM | SR 19.1 µM | SW-620 > 100 µM | T47D > 100 µM | TK-10 > 100 µM | U-251 > 100 µM | UACC-257 > 100 µM | UACC-62 > 100 µM | UO-31 > 100 µM
> 100 µM: HCT-15

Oc1c(CN2CCCC2)ccc2cccnc12
2.84 µM: HCT-15
inactive: 786-0 17.9 µM | A498 29.9 µM | A549 22.6 µM | ACHN 3.55 µM | BT-549 46.1 µM | CAKI-1 6.04 µM | CCRF-CEM 8.77 µM | COLO 205 25.9 µM | DU-145 23.2 µM | EKVX 12.3 µM | HCC 2998 > 47.4 µM | HCT-116 14.1 µM | HL-60 4.94 µM | HOP-62 13.3 µM | HOP-92 26.4 µM | HT-29 27.5 µM | Hs-578T > 83.4 µM | IGROV-1 18.8 µM | K562 > 33.5 µM | KM12 24.8 µM | LOX IMVI 15.5 µM | M14 15.7 µM | MCF7 29.6 µM | MDA-MB-231 51.3 µM | MDA-MB-435 38.9 µM | MDA-N 39.4 µM | MOLT-4 20.1 µM | Malme-3M 25.1 µM | NCI-H226 21.5 µM | NCI-H23 27 µM | NCI-H460 20.3 µM | NCI-H522 27.6 µM | NCI/ADR-RES 2.38 µM | OVCAR-3 23.9 µM | OVCAR-4 14.9 µM | OVCAR-5 31.6 µM | OVCAR-8 11 µM | PC-3 > 39.5 µM | RPMI-8226 16.7 µM | RXF 393 > 67.9 µM | SF-268 24 µM | SF-295 13 µM | SF-539 24 µM | SK-MEL-28 22.5 µM | SK-MEL-2 > 47 µM | SK-MEL-5 12.7 µM | SK-OV-3 25.9 µM | SN12C 19.3 µM | SNB-19 18.3 µM | SNB-75 37.5 µM | SR 12.2 µM | SW-620 24.2 µM | T47D 23 µM | TK-10 12.4 µM | U-251 16.2 µM | UACC-257 29.3 µM | UACC-62 26.2 µM | UO-31 3.44 µM
